From patent publication US20240099989A1, “AGENT FOR PREVENTING OR IMPROVING PERIPHERAL NEUROPATHY” (KINKI UNIVERSITY, priority 2021, published 2024)
Read-outs that look alike come from different tables or passages of the source.

Tested on: Peripheral Neuropathy in a Mouse Caused by Paclitaxel
Format: in vivo, Balb/c mice
Description: Six to seven-week-old female Balb/c mice were used for the tests as with Example 1. All the mice were acclimated for seven days after arrival. Then, the mice were grouped into the following four groups: a control group, a group receiving paclitaxel, a group receiving xylitol, and a group receiving paclitaxel and xylitol (a group receiving paclitaxel+xylitol). Each group consisted of five mice.
On Day 8 of acclimation, the mice in the group receiving paclitaxel and the group receiving paclitaxel+xylitol were intraperitoneally administered with paclitaxel at a dose of 6 mg/kg. This day was designated as the first day of the administration (Day 0). Thereafter, these mice were intraperitoneally administered with paclitaxel at the same dose on Day 7 and Day 14 for a total of 3 doses.
The mice in the group receiving 100 mg/kg xylitol were orally administered with xylitol at a dose of 100 mg/kg daily from Day 0. The mice in the group receiving paclitaxel+100 mg/kg xylitol were orally administered with xylitol at a dose of 100 mg/kg daily from Day 6 of administration.
A test was performed on the mice in the four groups described in (6) of the present example (Example 2) to examine the effect of xylitol on paresthesia that is caused by a low temperature stimulus. The mice in respective groups were placed on a cold plate set at 10° C., and withdrawal response time (latent time) was measured. It is presumed that a shorter latent time reflects a greater degree of shunning the low temperature stimulus by the cold plate. […]
The mice in the group receiving 100 mg/kg D-threitol were orally administered with D-threitol at a dose of 100 mg/kg daily from Day 0. The mice in the group receiving paclitaxel+100 mg/kg D-threitol were orally administered with D-threitol at a dose of 100 mg/kg daily from Day 6 of administration.
A test was performed on the mice in the four groups described in (4) of the present example (Example 4) to examine the effect of D-threitol on paresthesia that is caused by a low temperature stimulus. The mice in respective groups were placed on a cold plate set at 10° C., and withdrawal response time (latent time) was measured. It is presumed that a shorter latent time reflects a greater degree of shunning the low temperature stimulus by the cold plate.
Six to seven-week-old female Balb/c mice were used for the tests as with Example 1. All the mice were acclimated for seven days after arrival. Then, the mice were grouped into the following four groups: a control group, a group receiving paclitaxel, a group receiving L-talitol, and a group receiving paclitaxel and L-talitol (a group receiving paclitaxel+L-talitol). Each group consisted of five mice.
On Day 8 of acclimation, the mice in the group receiving paclitaxel and the group receiving paclitaxel+L-talitol were intraperitoneally administered with paclitaxel at a dose of 6 mg/kg. This day was designated as Day 0 of administration. Thereafter, these mice were intraperitoneally administered with paclitaxel at a daily dose of 6 mg/kg on Day 7 and Day 14.
The mice in the group receiving L-talitol and the group receiving paclitaxel+L-talitol were orally administered with L-talitol at a dose of 5 mg/kg daily from Day 0.
A cold plate test was performed to examine the effect of L-talitol on paresthesia that is caused by a low temperature stimulus. The mice in the four groups described in (4) of the present example (Example 5) were placed on a cold plate set at 10° C., and withdrawal response time (latent time) was measured. It is presumed that a shorter latent time reflects a greater degree of shunning the low temperature stimulus by the cold plate.
On Day 8 of acclimation, the mice in the group receiving paclitaxel and the group receiving paclitaxel+L-talitol were intraperitoneally administered with paclitaxel at a dose of 6 mg/kg. This day was designated as the first day of the administration (Day 0). […]

[1] = 6 mg/kg paclitaxel + 5 mg/kg test substance orally daily from Day 0 (prevention)
[2] = 6 mg/kg paclitaxel + 100 mg/kg orally daily from Day 6, on Day 12, vs group receiving 6 mg/kg paclitaxel

Row | SMILES | withdrawal response time (latent time) [1] | withdrawal response time (latent time) [2]
1 | OC[C@@H](O)[C@H](O)CO [D-threitol] | approximately similar to that of the control group | significantly longer withdrawal response time
2 | OC[C@@H](O)[C@H](O)[C@@H](O)CO [xylitol] | approximately similar to that of the control group | significantly longer withdrawal response time
3 | OC[C@H](O)[C@H](O)[C@H](O)[C@@H](O)CO [L-talitol] | approximately similar to that of the control group | significantly longer withdrawal response time
